Source: paper PMC10298982, “Stability Characterization of the Novel Anti-Cancer HM-10/10 HDL-Mimetic Peptide” (International Journal of Molecular Sciences, 2023)
Ends that are not written are not given here.

How the values were obtained:
CYP2B6 = molecular target: T1, CYP2B6 (Homo sapiens, UniProt P20813); conditions: microsomes
T1 sequence (P20813 1-491): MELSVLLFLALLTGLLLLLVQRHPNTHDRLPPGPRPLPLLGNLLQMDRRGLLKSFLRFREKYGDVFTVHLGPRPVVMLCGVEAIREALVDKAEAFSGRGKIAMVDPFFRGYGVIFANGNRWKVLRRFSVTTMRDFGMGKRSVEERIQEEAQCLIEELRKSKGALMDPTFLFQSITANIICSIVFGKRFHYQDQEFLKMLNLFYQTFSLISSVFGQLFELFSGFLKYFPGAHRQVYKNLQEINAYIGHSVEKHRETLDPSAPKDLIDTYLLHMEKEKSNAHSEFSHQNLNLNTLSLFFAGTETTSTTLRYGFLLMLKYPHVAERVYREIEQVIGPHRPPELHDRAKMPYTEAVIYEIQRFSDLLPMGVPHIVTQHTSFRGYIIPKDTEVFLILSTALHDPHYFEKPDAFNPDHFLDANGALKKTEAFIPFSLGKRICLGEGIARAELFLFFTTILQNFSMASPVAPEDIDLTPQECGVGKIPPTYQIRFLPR

CYP1A2 = molecular target: T2, CYP1A2 (Homo sapiens, UniProt P05177); conditions: microsomes
T2 sequence (P05177 1-516): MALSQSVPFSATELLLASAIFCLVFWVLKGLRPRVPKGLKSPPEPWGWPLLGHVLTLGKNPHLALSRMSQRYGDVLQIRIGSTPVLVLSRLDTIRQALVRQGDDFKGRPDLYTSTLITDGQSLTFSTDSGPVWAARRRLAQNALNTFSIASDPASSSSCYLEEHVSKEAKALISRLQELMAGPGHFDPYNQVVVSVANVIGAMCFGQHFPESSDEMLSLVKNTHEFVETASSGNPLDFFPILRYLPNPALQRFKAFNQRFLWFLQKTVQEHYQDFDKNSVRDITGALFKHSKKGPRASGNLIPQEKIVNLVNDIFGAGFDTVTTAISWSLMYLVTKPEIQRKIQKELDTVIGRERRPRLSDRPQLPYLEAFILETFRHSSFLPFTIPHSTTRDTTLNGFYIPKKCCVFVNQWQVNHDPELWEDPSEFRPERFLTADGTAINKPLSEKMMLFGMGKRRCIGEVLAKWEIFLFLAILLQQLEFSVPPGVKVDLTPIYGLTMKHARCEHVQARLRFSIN

[1] = Stability in simulated intestinal fluid (SIF); format: in vitro ADME
Procedure: When developing any potentially oral-route pharmaceutical agent, the denaturing and pepsin-rich environment of the stomach must be considered. The stability of HM-10/10 was tested in simulated gastric fluid (SGF) and simulated intestinal fluid (SIF) over 120 min. […] Samples were tested at 2 μM.
For the HM-10/10 stability assay in simulated gastric and intestinal fluids, propantheline was used to confirm retention time and carbutamide was used as the internal standard for calculations.

[2] = Metabolic stability in cryopreserved cynomolgus monkey hepatocytes; format: in vitro ADME; conditions: Cynomolgus monkey hepatocytes 0.5 million cells/mL
CYP2C8 = molecular target: T3, CYP2C8 (Homo sapiens, UniProt P10632); conditions: microsomes
T3 sequence (P10632 1-490): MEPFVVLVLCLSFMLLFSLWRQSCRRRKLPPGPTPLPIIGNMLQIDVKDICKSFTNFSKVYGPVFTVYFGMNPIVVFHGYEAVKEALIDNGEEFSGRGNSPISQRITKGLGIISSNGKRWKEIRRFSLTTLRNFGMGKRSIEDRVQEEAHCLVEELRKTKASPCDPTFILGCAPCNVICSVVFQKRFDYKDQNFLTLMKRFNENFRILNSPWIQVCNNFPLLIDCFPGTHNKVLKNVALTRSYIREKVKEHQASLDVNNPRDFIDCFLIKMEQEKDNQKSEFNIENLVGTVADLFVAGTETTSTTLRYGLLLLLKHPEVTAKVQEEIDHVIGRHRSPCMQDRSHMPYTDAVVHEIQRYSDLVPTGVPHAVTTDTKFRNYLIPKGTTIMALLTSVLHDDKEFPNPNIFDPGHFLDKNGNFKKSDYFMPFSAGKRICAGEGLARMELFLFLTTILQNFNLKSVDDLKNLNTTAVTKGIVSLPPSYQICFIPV

[3] = Test article stability over 24 h incubation with hepatocytes in the induction assay; format: in vitro ADME, human; conditions: average of three lots, both days
Procedure: For each 24 h incubation, 50 µL of each medium containing the test article (HM-10/10) were collected at the start (T0) and end of 24 h incubation (T24) and quenched with 300 µL of 1% perchloric acid in methanol and 50 µL of internal standard cocktail (carbutamide, chrysin, and glyburide each at 1.71 µg/mL water). These samples were analyzed to test the stability of HM-10/10 after 24 h incubation with the hepatocytes. The quenched sample plates were stored covered in a −20 °C freezer.

CYP3A4 = CYP3A4 induction (enzyme activity) in single-donor human hepatocytes; format: in vitro ADME; conditions: for Fold Increase (Enzyme Activity) Mean: mean of three lots
[4] = test system: cynomolgus monkey plasma proteins; assay: Protein binding in cynomolgus monkey plasma (ultracentrifugation); conditions: Cynomolgus monkey plasma (K2EDTA); 2 μM; 2.5 h at 37 °C
in vitro = conditions: cynomolgus monkey, plasma, pH 7.4
Procedure: The supernatant was removed and incubated at 37 °C for at least 10 min before use. The pH of each matrix was checked and adjusted to pH 7.4 using 10% phosphoric acid or 1 N sodium hydroxide as necessary.
Test and control article stock solutions were spiked (1.5 µL) into matrix (0.749 mL) to a final assay concentration of 2 µM and mixed. […] These tubes were sealed and incubated at 37 °C with shaking.
The quenched samples were mixed briefly by vortexing and stored in a −20 °C freezer.
Sample plates were stored refrigerated until analysis.
The column was set to a temperature of 55 °C. […] The instrument was equipped with an electrospray ionization source (500 °C) operated in positive-ion mode.
Peak area ratios for IS-normalized test article and control article counts were used to calculate the percent remaining relative to the time zero (T0) value. As appropriate, results were plotted and further analyzed to calculate half-life (T1/2) values.
Mean peak ratios were used to calculate the percent remaining relative to the T0 value: % Remaining at Timex = (mean peak area ratio Tx/mean peak ratio T0) × 100.

In the case of “LRKLRKRLLRLVGRQLEEFL [HM-10/10, LRKLRKRLLRLVGRQLEEFL]”, the “% Inhibition at 50 µM No PI + NADPH” value (CYP2B6) is reported as 17.3%, the “% Inhibition at 50 µM No PI − NADPH” value (CYP2B6) is reported as 25.2% and the “% Inhibition at 50 µM PI + NADPH” value (CYP2B6) is reported as 28.4%. For the same sequence, the “% Inhibition at 50 µM PI − NADPH” value (CYP2B6) was 42.2%, the “% Inhibition at 50 µM No PI + NADPH” value (CYP1A2) was −18.0% and the “% Inhibition at 50 µM No PI − NADPH” value (CYP1A2) was −20.7%. For the same sequence, the “% Inhibition at 50 µM PI + NADPH” value (CYP1A2) was 0.1%, the “% Inhibition at 50 µM PI − NADPH” value (CYP1A2) was −15.8% and the “Compound detected after 20 min under SIF conditions” value ([1]; SIF, 2 μM, 20 min) was “no HM-10/10 could be detected”. The half-life at 2 µM ([1]; simulated intestinal fluid (SIF), SIF pH 5.5) was 2.72 min, the CLint scaled ([2]; 2 μM) was 465 mL/min/kg and the half-life at 2 µM ([2]; cryopreserved hepatocytes) was 12.1 min. The remaining at 0.5 h, 2 µM ([2]; cryopreserved hepatocytes, read-out: % Remaining at 30 min) was 18.5%, the “% Inhibition at 50 µM No PI + NADPH” value (CYP2C8) was 18.7% and the “% Inhibition at 50 µM No PI − NADPH” value (CYP2C8) was 14.0%. For the same sequence, the “% Inhibition at 50 µM PI + NADPH” value (CYP2C8) was 9.0%, the “% Inhibition at 50 µM PI − NADPH” value (CYP2C8) was 11.4% and the “Average % Stability” value ([3]; 10 µM) was 0.7%. The remaining at 24 h, 2 µM ([3]; human, plated human hepatocytes, three single-donor lots, 2 µM) was 0.6%, the remaining at 24 h, 25 µM ([3]; human, plated human hepatocytes, three single-donor lots, 25 µM) was 0.3% and the “Fold Increase (Enzyme Activity) Lot HH1086” value (CYP3A4; 2 µM) was 2.06 fold. For the same sequence, the “Fold Increase (Enzyme Activity) Lot HH1142” value (CYP3A4; 2 µM) was 1.59 fold, the “Fold Increase (Enzyme Activity) Lot HH1144” value (CYP3A4; 2 µM) was 1.35 fold and the “Fold Increase (Enzyme Activity) Mean” value (CYP3A4; 2 µM) was 1.67 fold. For the same sequence, the “Fold Increase (Enzyme Activity) Lot HH1086” value (CYP3A4; 10 µM) was 2.20 fold, the “Fold Increase (Enzyme Activity) Lot HH1142” value (CYP3A4; 10 µM) was 2.12 fold and the “Fold Increase (Enzyme Activity) Lot HH1144” value (CYP3A4; 10 µM) was 1.83 fold. The “Fold Increase (Enzyme Activity) Mean” value (CYP3A4; 10 µM) was 2.05 fold, the “Fold Increase (Enzyme Activity) Lot HH1086” value (CYP3A4; 25 µM) was 2.07 fold and the “Fold Increase (Enzyme Activity) Lot HH1142” value (CYP3A4; 25 µM) was 2.19 fold. The “Fold Increase (Enzyme Activity) Lot HH1144” value (CYP3A4; 25 µM) was 2.15 fold, the “Fold Increase (Enzyme Activity) Mean” value (CYP3A4; 25 µM) was 2.14 fold and the “% Protein Bound Mean ± SD” value [4] was 26.4 ± 21.6%. For the same sequence, the “% Protein Free Mean ± SD” value [4] was 73.6 ± 21.6%, the half-life at 2 µM (in vitro) was 52.7 min and the remaining at 2 h, 2 µM (in vitro) was 21.9%.
